Reference: PubChem BioAssay AID1259411 (Chemical Carcinogenesis Research Information System (CCRIS), 2018)
Calls of active or inactive are those of the source. How the calls were made is not given here.

System: rodent carcinogenicity bioassays, tumor incidence
Test: CCRIS carcinogenicity studies
Summary of the method: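 Archive of carcinogenicity, mutagenicity, tumor promotion and tumor inhibition results drawn from journals, NCI reports and other sources, expert-reviewed; covers 1985-2011 and is no longer updated.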

For O=[N+]([O-])c1ccc2ccc3cccc4ccc1c2c34, the carcinogen call (Species: HAMSTER, Strain/Sex: SYRIAN/MALE, Route: INTRATRACHEAL, Dose: 0, 1, 2 MG ADSORBED ONTO CARBON CARRIER PARTICLES IN 0.2 ML SALINE 1/WK FOR 92 WK (STUDY DURATION: 92 WK), Dose: 0, 1, 2 MG ADSORBED ONTO CARBON CARRIER PARTICLES IN 0.2 ML SALINE 1/WK FOR 92 WK (STUDY DURATION: 92 WK)) was “inactive; negative”, the carcinogen call (Species: HAMSTER, Strain/Sex: SYRIAN/MALE, Route: INTRATRACHEAL, Dose: 0, 1, 2 MG ADSORBED ONTO CARBON CARRIER PARTICLES IN 0.2 ML SALINE 2/WK FOR 92 WK (STUDY DURATION: 92 WK), Dose: 0, 1, 2 MG ADSORBED ONTO CARBON CARRIER PARTICLES IN 0.2 ML SALINE 2/WK FOR 92 WK (STUDY DURATION: 92 WK)) was “inactive; negative” and the carcinogen call (Species: MOUSE, Strain/Sex: B6C3F1/FEMALE, Route: INTRAPERITONEAL, Dose: 0, 7 NMOL (TOTAL DOSE), 1/7, 2/7 AND 4/7 OF THE TOTAL DOSE ADMINISTERED WITHIN 24 HR OF BIRTH AND AT 8 AND 15 D OF AGE) was “inactive; negative”. For the same molecule, the carcinogen call (Species: MOUSE, Strain/Sex: B6C3F1/MALE, Route: INTRAPERITONEAL, Dose: 0, 7 NMOL (TOTAL DOSE), 1/7, 2/7 AND 4/7 OF THE TOTAL DOSE ADMINISTERED WITHIN 24 HR OF BIRTH AND AT 8 AND 15 D OF AGE) was “inactive; negative”, the carcinogen call (Species: MOUSE, Strain/Sex: BALB/MALE, Route: SUBCUTANEOUS, Dose: 0, 0.1 MG IN DMSO 1/WK FOR 20 WK (STUDY DURATION: 60 WK)) was “inactive; negative” and the carcinogen call (Species: MOUSE, Strain/Sex: ICR/FEMALE, Route: INTRAPERITONEAL, Dose: 0, 21 UG TOTAL DOSE (3 UG/5 µL, 6 UG/10 µL, 12 UG/20 µL DMSO ON DAYS 1,8 AND 15), 105 UG TOTAL DOSE (15 UG/5 µL, 30 UG/1, Dose: 0, 21 UG TOTAL DOSE (3 UG/5 µL, 6 UG/10 µL, 12 UG/20 µL DMSO ON DAYS 1,8 AND 15), 105 UG TOTAL DOSE (15 UG/5 µL, 30 UG/1) was “inactive; negative”. The carcinogen call (Species: MOUSE, Strain/Sex: ICR/MALE, Route: INTRAPERITONEAL, Dose: 0, 21 UG TOTAL DOSE (3 UG/5 µL, 6 UG/10 µL, 12 UG/20 µL DMSO ON DAYS 1,8 AND 15), 105 UG TOTAL DOSE (15 UG/5 µL, 30 UG/1, Dose: 0, 21 UG TOTAL DOSE (3 UG/5 µL, 6 UG/10 µL, 12 UG/20 µL DMSO ON DAYS 1,8 AND 15), 105 UG TOTAL DOSE (15 UG/5 µL, 30 UG/1) was “inactive; negative”, the carcinogen call (Species: MOUSE, Strain/Sex: STRAIN-A/FEMALE, Route: INTRAPERITONEAL, Dose: 0, 0.71, 2.14, 6.44 MMOL/KG IN 0.1 ML TRIOCTANOIN TOTAL DOSE ADMINISTERED AS 3 INJECTIONS/WK FOR 17 INJECTIONS (STUDY DU, Dose: 0, 0.71, 2.14, 6.44 MMOL/KG IN 0.1 ML TRIOCTANOIN TOTAL DOSE ADMINISTERED AS 3 INJECTIONS/WK FOR 17 INJECTIONS (STUDY DU, Tumor Site: Type of Lesion: LUNG: ADENOMA) was “active; positive” and the carcinogen call (Species: MOUSE, Strain/Sex: STRAIN-A/MALE, Route: INTRAPERITONEAL, Dose: 0, 0.71, 2.14, 6.44 MMOL/KG IN 0.1 ML TRIOCTANOIN TOTAL DOSE ADMINISTERED AS 3 INJECTIONS/WK FOR 17 INJECTIONS (STUDY DU, Dose: 0, 0.71, 2.14, 6.44 MMOL/KG IN 0.1 ML TRIOCTANOIN TOTAL DOSE ADMINISTERED AS 3 INJECTIONS/WK FOR 17 INJECTIONS (STUDY DU, Tumor Site: Type of Lesion: LUNG: ADENOMA) was “active; positive”. For the same molecule, the carcinogen call (Species: RAT, Strain/Sex: F344/DUCRJ FISCHER/MALE, Route: SUBCUTANEOUS, Dose: 2 MG TWICE WEEKLY FOR 10 WK (STUDY DURATION: 52 WK), Tumor Site: Type of Lesion: INTEGUMENTARY SYSTEM: FIBROUS HISTIOCYTOMAS) was “active; positive”, the carcinogen call (Species: RAT, Strain/Sex: F344/FEMALE, Route: SUBCUTANEOUS, Dose: 0, 40 UMOL (TOTAL DOSE) ADMINISTERED OVER 8 WK BEGINNING WITHIN 24 HR OF BIRTH (STUDY DURATION: 86 WK), Tumor Site: Type of Lesion: HEMATOPOIETIC SYSTEM: LEUKEMIA) was “active; positive” and the carcinogen call (Species: RAT, Strain/Sex: F344/MALE, Route: SUBCUTANEOUS, Dose: 0, 0.2, 2 MG 2/WK FOR 10 WK (STUDY DURATION: 650 D), Dose: 0, 0.2, 2 MG 2/WK FOR 10 WK (STUDY DURATION: 650 D)) was “inactive; negative”. The carcinogen call (Species: RAT, Strain/Sex: F344/MALE, Route: SUBCUTANEOUS, Dose: 2 MG IN DMSO 2/WK FOR 10 WK, Tumor Site: Type of Lesion: INJECTION SITE: MALIGNANT FIBROUS HISTIOCYTOMA) was “active; positive”, the carcinogen call (Species: RAT, Strain/Sex: SPRAGUE-DAWLEY/FEMALE, Route: SUBCUTANEOUS, Dose: 0, 50, 100 UMOL/KG IN DMSO 1/WK FOR 8 WK (STUDY DURATION: 62 WK), Dose: 0, 50, 100 UMOL/KG IN DMSO 1/WK FOR 8 WK (STUDY DURATION: 62 WK), Tumor Site: Type of Lesion: INJECTION SITE: MALIGNANT FIBROUS HISTIOCYTOMA, MAMMARY GLAND: FIBROADENOMA, ADENOCARCINOMA) was “active; positive” and the carcinogen call (Species: RAT, Strain/Sex: SPRAGUE-DAWLEY/MALE, Route: SUBCUTANEOUS, Dose: 0, 50, 100 UMOL/KG IN DMSO 1/WK FOR 8 WK (STUDY DURATION: 62 WK), Dose: 0, 50, 100 UMOL/KG IN DMSO 1/WK FOR 8 WK (STUDY DURATION: 62 WK), Tumor Site: Type of Lesion: INJECTION SITE: MALIGNANT FIBROUS HISTIOCYTOMA) was “active; positive”. For the same molecule, the carcinogen call (Species: RAT, Strain/Sex: STRAIN CD/FEMALE, Route: INTRAGASTRIC, Dose: 0, 10 UMOL IN DMSO 3/WK FOR 4 WK (TOTAL DOSE: 16 UMOL/RAT) (STUDY DURATION: 78 WK)) was “inactive; negative”, the carcinogen call (Species: RAT, Strain/Sex: STRAIN CD/FEMALE, Route: INTRAPERITONEAL, Dose: 0, 10 UMOL IN DMSO 3/WK FOR 4 WK (TOTAL DOSE: 16 UMOL/RAT) (STUDY DURATION: 78 WK), Tumor Site: Type of Lesion: MAMMARY GLAND: ADENOCARCINOMA, FIBROADENOMA) was “active; positive” and the carcinogen call (Species: RAT, Strain/Sex: STRAIN CD/FEMALE, Route: INTRAPERITONEAL, Dose: 0, 10 UMOL IN DMSO 3/WK FOR 4 WK (TOTAL DOSE: 16 UMOL/RAT) (STUDY DURATION: 78 WK), Tumor Site: Type of Lesion: PITUITARY GLAND: CARCINOMA) was “active; positive”. The carcinogen call (Species: RAT, Strain/Sex: STRAIN-CD/FEMALE, Route: GAVAGE, Dose: 0, 50 UMOL IN 0.5 ML TRIOCTANOIN 1/WK FOR 8 WK (STUDY DURATION: 49 WK), Tumor Site: Type of Lesion: MAMMARY GLAND: FIBROADENOMA) was “active; positive”, the carcinogen call (Species: RAT, Strain/Sex: STRAIN-CD/FEMALE, Route: INJECTION, Dose: 0, 0.1 ML OF 20.3 UMOL/ML DMSO INJECTED INTO MAMMARY TISSUE OF THE 3 LEFT THORACIC NIPPLES FOLLOWED THE NEXT D BY SIMILA) was “inactive; negative” and the carcinogen call (Species: RAT, Strain/Sex: STRAIN-CD/FEMALE, Route: INJECTION, Dose: 0, 0.1 ML OF A 20.3 UMOL/ML SOLUTION IN DMSO INJECTED INTO MAMMARY TISSUE UNDERLYING 3 LEFT THORACIC NIPPLES THE FOLLOWI) was “inactive; negative”. For the same molecule, the carcinogen call (Species: RAT, Strain/Sex: STRAIN-CD/FEMALE, Route: INTRAPERITONEAL, Dose: 0, 67 UMOL/KG BW IN DMSO 3/WK FOR 4 WK (STUDY DURATION: 61 WK)) was “inactive; negative”, the carcinogen call (Species: RAT, Strain/Sex: STRAIN-CD/FEMALE, Route: INTRAPERITONEAL, Dose: 0, 67 UMOL/KG/BW IN 25 UMOL/ML DMSO 3/WK FOR 4 WK (TOTAL DOSE: 0; 119 UMOL) ADMINISTERED TO WEANLING RATS (STUDY DURATIO, Dose: 0, 67 UMOL/KG/BW IN 25 UMOL/ML DMSO 3/WK FOR 4 WK (TOTAL DOSE: 0; 119 UMOL) ADMINISTERED TO WEANLING RATS (STUDY DURATIO) was “inactive; negative” and the carcinogen call (Species: RAT, Strain/Sex: STRAIN-CD/FEMALE, Route: INTRAPERITONEAL, Dose: 0, 100 UMOL/KG BW IN DMSO 1/WK FOR 4 WK (STUDY DURATION: 90 WK), Tumor Site: Type of Lesion: MAMMARY GLAND: ADENOCARCINOMA) was “active; positive”. The carcinogen call (Species: RAT, Strain/Sex: STRAIN-CD/FEMALE, Route: INTRAPERITONEAL, Dose: 0, 100 UMOL/KG/BW IN 70 UMOL/ML DMSO 1/WK FOR 4 WK (TOTAL DOSE: 0; 77.3 UMOL) ADMINISTERED TO WEANLING RATS (STUDY DURAT, Dose: 0, 100 UMOL/KG/BW IN 70 UMOL/ML DMSO 1/WK FOR 4 WK (TOTAL DOSE: 0; 77.3 UMOL) ADMINISTERED TO WEANLING RATS (STUDY DURAT, Tumor Site: Type of Lesion: MAMMARY GLAND: ADENOCARCINOMA) was “active; positive”, the carcinogen call (Species: RAT, Strain/Sex: STRAIN-CD/FEMALE, Route: SUBCUTANEOUS, Dose: 0, 6.3 UMOL (TOTAL DOSE) ADMINISTERED OVER 8 WK BEGINNING ON DAY OF BIRTH (STUDY DURATION: 67 WK), Tumor Site: Type of Lesion: MAMMARY GLAND: TUMOR) was “active; positive” and the carcinogen call (Species: RAT, Strain/Sex: STRAIN-CD/FEMALE, Route: SUBCUTANEOUS, Dose: 0, 63 UMOL (TOTAL DOSE) ADMINISTERED OVER 8 WK BEGINNING WITHIN 24 HR OF BIRTH (STUDY DURATION: 86 WK), Tumor Site: Type of Lesion: MAMMARY GLAND: TUMOR) was “active; positive”. The carcinogen call (Species: RAT, Strain/Sex: STRAIN-CD/FEMALE, Route: SUBCUTANEOUS, Dose: 0, 100 UMOL/KG BW IN DMSO 1/WK FOR 4 WK (STUDY DURATION: 90 WK), Tumor Site: Type of Lesion: MAMMARY GLAND: FIBROADENOMA) was “active; positive”, the carcinogen call (Species: RAT, Strain/Sex: STRAIN-CD/FEMALE, Route: SUBCUTANEOUS, Dose: 0, 100 UMOL/KG/BW IN 70 UMOL/ML DMSO 1/WK FOR 4 WK (TOTAL DOSE: 0; 74.3 UMOL) ADMINISTERED TO WEANLING RATS (STUDY DURAT, Dose: 0, 100 UMOL/KG/BW IN 70 UMOL/ML DMSO 1/WK FOR 4 WK (TOTAL DOSE: 0; 74.3 UMOL) ADMINISTERED TO WEANLING RATS (STUDY DURAT, Tumor Site: Type of Lesion: MAMMARY GLAND: FIBROADENOMA) was “active; positive” and the carcinogen call (Species: RAT, Strain/Sex: STRAIN-CD/FEMALE, Route: SUBCUTANEOUS, Dose: 50, 100 UMOL/KG IN DMSO 1/WK FOR 8 WK, Tumor Site: Type of Lesion: INJECTION SITE: FIBROSARCOMA, MAMMARY GLAND: ADENOCARCINOMA) was “active; positive”. For the same molecule, the carcinogen call (Species: RAT, Strain/Sex: STRAIN-CD/MALE, Route: SUBCUTANEOUS, Dose: 50, 100 UMOL/KG IN DMSO 1/WK FOR 8 WK, Tumor Site: Type of Lesion: INJECTION SITE: FIBROSARCOMA) was “active; positive”.
